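Five concentrations, 48 hours, 96-well plates. At the GI50, growth is halved.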 Activity calls are given as the source filed them. No stated cut-off is given here; in the data, active = GI50 up to about 1.1 µM and inactive = higher.
Experiments:
Experiment in all cases: growth of human tumour cells (NCI), 48 h
KM12 = system: KM12
CCRF-CEM = system: CCRF-CEM
SR = system: SR
HOP-92 = system: HOP-92
786-0 = system: 786-0
HCT-15 = system: HCT-15
HOP-62 = system: HOP-62
MOLT-4 = system: MOLT-4
SK-MEL-28 = system: SK-MEL-28
RXF 393 = system: RXF 393
HCC 2998 = system: HCC 2998
UO-31 = system: UO-31
M14 = system: M14
SNB-19 = system: SNB-19
UACC-62 = system: UACC-62
HCT-116 = system: HCT-116
SK-OV-3 = system: SK-OV-3
SN12C = system: SN12C
SF-295 = system: SF-295
A549 = system: A549
SW-620 = system: SW-620
A498 = system: A498
U-251 = system: U-251
ACHN = system: ACHN
BT-549 = system: BT-549
RPMI-8226 = system: RPMI-8226
IGROV-1 = system: IGROV-1
NCI/ADR-RES = system: NCI/ADR-RES
OVCAR-8 = system: OVCAR-8
SK-MEL-2 = system: SK-MEL-2
NCI-H23 = system: NCI-H23
MDA-MB-435 = system: MDA-MB-435
Hs-578T = system: Hs-578T
TK-10 = system: TK-10
NCI-H460 = system: NCI-H460
UACC-257 = system: UACC-257
DU-145 = system: DU-145
OVCAR-4 = system: OVCAR-4
SNB-75 = system: SNB-75
NCI-H226 = system: NCI-H226
T47D = system: T47D
HL-60 = system: HL-60
COLO 205 = system: COLO 205
OVCAR-5 = system: OVCAR-5
SF-539 = system: SF-539
PC-3 = system: PC-3
K562 = system: K562
SK-MEL-5 = system: SK-MEL-5
SF-268 = system: SF-268
OVCAR-3 = system: OVCAR-3
MCF7 = system: MCF7
EKVX = system: EKVX
HT-29 = system: HT-29
NCI-H522 = system: NCI-H522

Measured: GI50

O=C(NCCCCNCCCNC(=O)OCc1ccccc1)OCc1ccccc1
61.5 µM: HCT-15
inactive: KM12 32 µM | CCRF-CEM 31 µM | SR 23.9 µM | HOP-92 22.7 µM | 786-0 21.9 µM | HOP-62 27.8 µM | MOLT-4 26.9 µM | SK-MEL-28 18.4 µM | RXF 393 16.5 µM | HCC 2998 19.5 µM | UO-31 24.2 µM | M14 18.3 µM | SNB-19 37.8 µM | UACC-62 17.9 µM | HCT-116 24.5 µM | SK-OV-3 69.7 µM | SN12C 85.3 µM | SF-295 21.8 µM | A549 64.4 µM | SW-620 61.7 µM | A498 17.4 µM | U-251 34.5 µM | ACHN 43.4 µM | BT-549 55 µM | RPMI-8226 39 µM | IGROV-1 22.1 µM | NCI/ADR-RES 36.4 µM | OVCAR-8 26.8 µM | SK-MEL-2 21 µM | NCI-H23 > 100 µM | MDA-MB-435 33.4 µM | Hs-578T 31.8 µM | TK-10 43.7 µM | NCI-H460 23.6 µM | UACC-257 19.2 µM | DU-145 73.6 µM | OVCAR-4 80.2 µM | SNB-75 25.5 µM | NCI-H226 32 µM | T47D 18.9 µM | HL-60 20.3 µM | COLO 205 16.9 µM | OVCAR-5 85.1 µM | SF-539 21.3 µM | PC-3 27.2 µM | K562 30.8 µM | SK-MEL-5 16.9 µM | SF-268 69.5 µM | OVCAR-3 > 100 µM | MCF7 24.5 µM | EKVX 51.6 µM | HT-29 18 µM | NCI-H522 21.2 µM
